Measured values: patent US8198293B2, “Oxymatrine compositions and related methods for treating and preventing chronic infectious diseases” (priority 2008, dated 2012)

What was measured:
coxsackievirus B = conditions: in vitro, cell cultures; mechanism not defined; cited from earlier work
[1] = tested on: Coxsackievirus B myocarditis; conditions: intravenous; chronic Coxsackievirus B myocarditis; 0% in placebo group; cited from earlier work
[2] = tested on: chronic enterovirus infection / chronic fatigue; test: Case reports: treatment of chronic fatigue (Examples 2-5); assay type: in vivo, human; conditions: Example 5 patient, before oxymatrine
Protocol: A person with episodes of diarrhea while traveling to Tonga developed severe respiratory infection soon thereafter. The symptoms consisted of fevers to 105° F., night sweats, diffuse myalgia, tachycardia, fatigue, sinus congestion and cough, and unresponsiveness to antibiotics. The patient developed profound fatigue thereafter and went on total disability three months after the onset of symptoms. Initial Coxsackie B virus (CBV) 3, CVB4 and echovirus 9 antibody titers were 1:320, 1:160, 1:80 (normal <1:10), respectively.
The patient could not work for the next 18 months. They were started on oxymatrine at 300 mg twice a day (bid). After taking oxymatrine for two months, they were able to take short walks, but still exhausted after one hour of activity requiring five hour naps. At the end of three months of therapy, they started having fevers of 104-105° F. for several days with marked decrease in diffuse myalgia. […] CVB3, CVB4 and echovirus antibody three months after therapy were 1:160, 1:160 and 1:20, respectively.
A person who had recurrent episodes of debilitating fatigue became totally incapacitated after approximately 17 years. […] They went into remission but relapsed nine months later after developing a minor upper respiratory infection. They improved minimally after several months of bed rest, but was barely able to work six hours per day. They had brain fog, myalgia ( 7/10 pain) and was barely able to walk even 1-2 blocks.
Three days after taking oxymatrine at a dose of 300 mg bid, the myalgia intensified ( 10/10 pain), especially one hour after taking the pills. One week after starting oxymatrine, routine laboratory tests including CBC, chemistry panel and creatine phosphokinase (CPK) were normal. They continued having significant fatigue and myalgia for the next three weeks, but the symptoms resolved one week after stopping the medication. Mild increase in myalgia recurred three days after resuming oxymatrine, but resolved after continuing the medication for the next two weeks. The patient felt well at the end of three months with minimal discomfort in a few muscle groups.
Severe myalgia recurred after resuming vigorous exercise for three weeks while taking oxymatrine. They had to stop exercise for the two months allowing cessation of myalgia. After taking oxymatrine for six months, the patient felt well. Over the next six months after stopping the medication, the patient continuously performed heavy physical activities without significant difficulty. After developing another episode of upper respiratory symptoms, their symptoms relapsed. They have resumed oxymatrine but experienced increasing myalgia as the fatigue improved.
A person with a known history of frequent respiratory infections and vasovagal syncope developed respiratory infection, which was followed by bedridden fatigue. Enteroviral protein was detected in the stomach biopsy consistent with chronic enterovirus infection. […] After vigorous exercise, they would still have relapses of bedridden fatigue for one day but continued to work 10-12 hours per day for the next 12 months, walking two miles per day. Laboratory tests were normal while on therapy.
A person developed debilitating fatigue, sore throat, oral ulcers, vertigo, headaches and cognitive dysfunction two months after having a flu-like illness. […] Approximately four years later, the patient started taking oxymatrine. After an initial increase of gastrointestinal symptoms for the first two weeks, the patient tolerated 500 mg per day of oxymatrine.
The symptoms continued for two weeks and resolved after stopping oxymatrine. […] They continued to improve for 12 months after taking the medication.

[3] = tested on: Mycobacterium avium complex (MAC); test: Case report: Mycobacterium avium complex infection of the lung; assay type: in vivo, human; conditions: before oxymatrine, added to four-drug therapy
Protocol: A person with known history of Mycobacterium avium complex (MAC) infection of the lung and bronchiectasis for several years was treated with clarithromycin, ethambutol, ciprofloxacin and rifabutin for about five years. […] Intravenous amikacin was added following right middle and left lingula lobectomy. In spite of the above therapy, sputum and repeat bronchial washing obtained by bronchoscopy grew MAC within three weeks. A computed tomography scan of the chest remained unchanged except for the post-surgical changes.
Because of persistent positive cultures despite the four drug therapies, the patient was started on oxymatrine, which they tolerated well. […] Sputum became clear in color then resolved. About two months after the start of oxymatrine, the patient had fevers, flu-like symptoms, increase in non-productive cough, bilateral uveitis and elevation of liver enzymes to 3.5 times normal values. The symptoms lasted two weeks and resolved after tapering dose of oxymatrine to 200 mg bid. Liver enzymes returned to normal within six weeks. […] The anti-MAC medications were discontinued after […] of oxymatrine therapy. The dose of oxymatrine was tapered to 100 mg tid at four and a half months of therapy and then stopped after six months of total therapy. The patient felt well at the six month follow-up.

## O=C1CCC[C@@H]2[C@H]3CCCN4CCC[C@@H](CN12)[C@@H]34 [matrine]
Coxsackievirus B
  growth inhibition of coxsackievirus B: growth inhibition
[1]
  patients with improvement of cardiac function, increase in lymphocyte number and function, and loss of viral markers: more than 90%

## CC(C)[C@H](N)C(=O)OCCOCn1cnc2c(=O)[nH]c(N)nc21 [valacyclovir]
[2]
  response of fatigue and other symptoms: did not respond

## gamma interferon
[3]
  benefit on persistent positive sputum culture for MAC: without significant benefit
